Patent US10266535B2, “Inhibitor of FLT3 kinase and use thereof” (HEFEI INSTITUTES OF PHYSICAL SCIENCE, CHINESE ACADEMY OF …, priority 2015, dated 2019)
Read-outs that look alike come from different tables or passages of the source.

Assays:
[1] = test system: MOLM-14 (expressing FLT3/ITD mutant gene and wild-type FLT3 gene); assay: Cell proliferation, Cell Titer-Glo, MOLM-14; assay type: cell-based; conditions: Homo sapiens
Description: (§1) The above cell lines were constructed by our laboratory.
(§2) The number of viable cells was determined by quantification of ATP in living cells using the Cell Titer-Glo® (Promega, USA) chemiluminescence cell viability assay kit.

pro-B cell BaF3 = assay: Cell proliferation, Cell Titer-Glo, BaF3; assay type: cell-based; conditions: Mus musculus, incubated for 72 hours
Description: as §1, §2

[2] = test system: TEL-BaF3-FLT3-D835Y (stably expressing FLT3 D835Y mutant activated kinase); assay: Cell proliferation, Cell Titer-Glo, TEL-BaF3-FLT3-D835Y; assay type: cell-based; conditions: Mus musculus
Description: as §1, §2

[3] = test system: MV4-11 (expressing FLT3/ITD mutant gene); assay: Cell proliferation, Cell Titer-Glo, MV4-11; assay type: cell-based; conditions: Homo sapiens
How it was run: (§3)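 Read-out: luminescence from ATP in live cells (CellTiter-Glo), taken as viable cell number. Cell lines were built in-house.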

[4] = test system: TEL-BaF3-BLK (stably expressing BLK kinase); assay: Cell proliferation, Cell Titer-Glo, TEL-BaF3-BLK; assay type: cell-based; conditions: Mus musculus; incubated for 72 hours
Description: as §1, §2

[5] = test system: U937 (expressing wild-type FLT3 gene); assay: Cell proliferation, Cell Titer-Glo, U937; assay type: cell-based, human; conditions: Homo sapiens, U-937, 72 h
How it was run: as §3

[6] = test system: BaF3-FLT3-ITD-D835Y (stably expressing FLT3/ITD D835Y mutant activated kinase); assay: Cell proliferation, Cell Titer-Glo, BaF3-FLT3-ITD-D835Y; assay type: cell-based; conditions: Mus musculus
Description: as §1, §2

[7] = test system: MOLM-13 (expressing FLT3/ITD mutant gene and wild-type FLT3 gene); assay: Cell proliferation, Cell Titer-Glo, MOLM-13; assay type: cell-based; conditions: Homo sapiens
Description: as §1, §2

[8] = test system: TEL-BaF3-BMX (stably expressing BMX kinase); assay: Cell proliferation, Cell Titer-Glo, TEL-BaF3-BMX; assay type: cell-based; conditions: Mus musculus; incubated for 72 hours
Description: as §1, §2

[9] = test system: BaF3-FLT3-ITD-F691L (stably expressing FLT3/ITD F691L mutant activated kinase); assay: Cell proliferation, Cell Titer-Glo, BaF3-FLT3-ITD-F691L; assay type: cell-based; conditions: Mus musculus
Description: as §1, §2

[10] = test system: TEL-cKIT-BaF3 (stably expressing cKIT kinase); assay: Cell proliferation, Cell Titer-Glo, TEL-cKIT-BaF3; assay type: cell-based; conditions: Mus musculus; incubated for 72 hours
Description: as §1, §2

[11] = test system: TEL-JAK1-BaF3 (stably expressing JAK1 kinase); assay: Cell proliferation, Cell Titer-Glo, TEL-JAK1-BaF3; assay type: cell-based; conditions: Mus musculus; incubated for 72 hours
Description: as §1, §2

[12] = test system: TPR-MET-BaF3 (stably expressing MET kinase); assay: Cell proliferation, Cell Titer-Glo, TPR-MET-BaF3; assay type: cell-based; conditions: Mus musculus; incubated for 72 hours
Description: as §1, §2

[13] = test system: TEL-BaF3-FLT3/ITD (stably expressing FLT3/ITD mutant activated kinase); assay: Cell proliferation, Cell Titer-Glo, TEL-BaF3-FLT3/ITD; assay type: cell-based, mouse; conditions: Mus musculus, 72 h, incubated for 72 hours; read-out: TEL-BaF3-FLT3/ITD IC50
How it was run: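 Each BaF3 line carrying its activated kinase was made by the authors' own laboratory; the amount of ATP in living cells was quantified by CellTiter-Glo luminescence to determine surviving cell number.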

[14] = test system: TEL-BaF3-EGFR (stably expressing EGFR kinase); assay: Cell proliferation, Cell Titer-Glo, TEL-BaF3-EGFR; assay type: cell-based; conditions: Mus musculus; incubated for 72 hours
Description: as §1, §2

BTK protein kinase = BTK protein kinase (Homo sapiens (Human), UniProt Q06187); assay: In vitro inhibition activity (enzymatic activity), ADP-Glo, BTK; assay type: biochemical; conditions: ATP 10 μM
[15] = test system: OCI-AML-3 (expressing FLT3 A680V mutant gene); assay: Cell proliferation, Cell Titer-Glo, OCI-AML3; assay type: cell-based; conditions: Homo sapiens, incubated for 72 hours
How it was run: as §3

[16] = MOLM-14, incubated for 72 hours, read-out: MOLM-14 IC50
[17] = incubated for 72 hours, read-out: TEL-BaF3-FLT3-D835Y IC50
[18] = MV4-11, incubated for 72 hours, read-out: MV4-11 IC50
[19] = incubated for 72 hours, read-out: U937 IC50
[20] = incubated for 72 hours, read-out: BaF3-FLT3-ITD-D835Y IC50
[21] = MOLM-13, incubated for 72 hours, read-out: MOLM-13 IC50
[22] = incubated for 72 hours, read-out: BaF3-FLT3-ITD-F691L IC50

Chain of BTK protein kinase (Q06187 whole entry): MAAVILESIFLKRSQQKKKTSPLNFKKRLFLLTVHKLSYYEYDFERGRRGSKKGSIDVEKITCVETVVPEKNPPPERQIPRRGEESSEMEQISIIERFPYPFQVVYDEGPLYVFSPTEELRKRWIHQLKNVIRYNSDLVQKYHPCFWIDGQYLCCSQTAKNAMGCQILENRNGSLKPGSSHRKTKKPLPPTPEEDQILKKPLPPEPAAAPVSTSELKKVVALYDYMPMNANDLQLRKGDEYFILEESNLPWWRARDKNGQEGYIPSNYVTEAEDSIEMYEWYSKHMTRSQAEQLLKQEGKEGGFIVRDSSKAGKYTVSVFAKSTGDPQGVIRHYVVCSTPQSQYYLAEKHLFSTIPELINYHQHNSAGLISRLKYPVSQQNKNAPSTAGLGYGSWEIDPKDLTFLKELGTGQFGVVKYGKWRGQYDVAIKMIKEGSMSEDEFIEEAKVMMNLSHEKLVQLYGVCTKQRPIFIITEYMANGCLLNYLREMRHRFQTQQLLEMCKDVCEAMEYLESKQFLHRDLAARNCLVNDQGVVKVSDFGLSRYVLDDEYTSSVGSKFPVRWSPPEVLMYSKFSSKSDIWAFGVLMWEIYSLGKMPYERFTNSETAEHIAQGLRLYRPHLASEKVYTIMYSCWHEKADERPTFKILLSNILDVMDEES

| Compound | IC50 (pro-B cell BaF3) [nM] | IC50 [4] [nM] | IC50 [8] [nM] | IC50 [10] [nM] | IC50 [11] [nM] | IC50 [1, 16] [µM] | IC50 [2, 17] [µM] | IC50 [12] [nM] | IC50 [3, 18] [µM] | IC50 [13] [nM] | IC50 [14] [nM] | IC50 [5, 19] [µM] | IC50 [6, 20] [µM] | IC50 [7, 21] [µM] | IC50 [9, 22] [µM] | IC50 (BTK protein kinase) [nM] | further results |
| --- | --- | --- | --- | --- | --- | --- | --- | --- | --- | --- | --- | --- | --- | --- | --- | --- | --- |
| CS(=O)(=O)NC1CCC(n2nc(-c3ccc(Oc4ccccc4)cc3)c3c(N)ncnc32)CC1 (stereo not drawn) [Compound 78, N-(4-(4-amino-3-(4-phenoxyphenyl)-1H-pyrazolo[3,4-d]pyrimidin-1-yl)cyclohexyl)methanesulfonamide] | 6000 | 4 | 38 | 320 | – | – | – | – | – | – | – | – | – | – | – | – | IC50 ([1]; MOLM-14, 72 h, read-out: MOLM-14 IC50 [μM]): 0.11 µM; IC50 ([2]; 72 h, read-out: TEL-BaF3-FLT3-D835Y IC50 [μM]): 0.0076 µM; IC50 ([3]; MV4-11, 72 h, read-out: MV4-11 IC50 [μM]): 0.018 µM; IC50 ([5]; read-out: U937 IC50 [μM], incubated for 72 hours): 3.6 µM; IC50 ([6]; 72 h, read-out: BaF3-FLT3-ITD-D835Y IC50 [μM]): 0.053 µM; IC50 ([7]; MOLM-13, 72 h, read-out: MOLM-13 IC50 [μM]): 0.019 µM; IC50 ([9]; 72 h, read-out: BaF3-FLT3-ITD-F691L IC50 [μM]): 0.27 µM |
| Nc1ncnc2c1c(-c1ccc(Oc3ccccc3)cc1)nn2[C@@H]1CCCN(C(=O)[C@@H](N)Cc2ccc(O)cc2)C1 [Compound 11, (S)-2-amino-1-((R)-3-(4-amino-(4-phenoxyphenyl)-1H-pyrazolo[3,4-d]pyrimidin-1-yl)piperidin-1-yl)-3-(4-hydroxyphenyl)propan-1-one] | 960 | 90 | 440 | 830 | 340 | 0.046 | 0.02 | 1400 | 0.022 | 48 | 2200 | 3.4 | 0.28 | 0.012 | 0.26 | – | – |
| CC(O)C(=O)N1CCC[C@@H](n2nc(-c3ccc(Oc4ccccc4)cc3)c3c(N)ncnc32)C1 (stereo partly drawn) [Compound 23, 1-((R)-3-(4-amino-(4-phenoxyphenyl)-1H-pyrazolo[3,4-d]pyrimidin-1-yl)piperidin-1-yl)-2-hydroxylpropan-1-one] | > 10000 | 2800 | 88 | 4800 | > 10000 | 0.63 | 0.43 | > 10000 | 0.32 | 91 | 6500 | 4.3 | – | 0.29 | – | 204 | – |
| CC[C@@H](C)[C@@H](N)C(=O)N1CCC[C@@H](n2nc(-c3ccc(Oc4ccccc4)cc3)c3c(N)ncnc32)C1 [Compound 25, (2R,3R)-2-amino-1-((R)-3-(4-amino-(4-phenoxyphenyl)-1H-pyrazolo[3,4-d]pyrimidin-1-yl)piperidin-1-yl)-3-methylpentan-1-one] | 1700 | 1100 | 510 | 3100 | 3300 | 0.19 | 0.18 | 1700 | 0.12 | 88 | 890 | 1.9 | – | 0.12 | – | 216 | – |
| Nc1ncnc2c1c(-c1ccc(Oc3ccccc3)cc1)nn2[C@@H]1CCCN(C(=O)N2CCNCC2)C1 [Compound 14, (R)-(3-(4-amino-(4-phenoxyphenyl)-1H-pyrazolo[3,4-d]pyrimidin-1-yl)piperidin-1-yl)(piperazin-1-yl)methanone] | 9800 | 1000 | 430 | 4900 | 7700 | 0.12 | 0.24 | 3000 | 0.049 | 88 | 1600 | 4.14 | 0.25 | 0.06 | 0.37 | 63 | – |
| CN1CCC(C(=O)N2CCC[C@@H](n3nc(-c4ccc(Oc5ccccc5)cc4)c4c(N)ncnc43)C2)CC1 [Compound 33, (R)-(3-(4-amino-(4-phenoxyphenyl)-1H-pyrazolo[3,4-d]pyrimidin-1-yl)piperidin-1-yl)(1-methylpiperidin-4-yl)methanone] | 5000 | 610 | 70 | 2010 | – | 0.22 | 0.14 | 1450 | 0.16 | 77 | – | > 10 | 0.63 | 0.16 | 0.28 | 421 | IC50 [15]: 5300 nM |
| Nc1ncnc2c1c(-c1ccc(Oc3ccccc3)cc1)nn2[C@@H]1CCCN(C(=O)[C@H](N)Cc2ccccc2)C1 [Compound 26, (R)-2-amino-1-((R)-3-(4-amino-(4-phenoxyphenyl)-1H-pyrazolo[3,4-d]pyrimidin-1-yl)piperidin-1-yl)-3-phenylpropan-1-one] | 1500 | 2900 | 1300 | 3500 | 2000 | 0.29 | 0.36 | 2000 | 0.28 | 160 | 1300 | 2.4 | – | 0.2 | – | 98 | – |
| CC(C)C[C@@H](N)C(=O)N1CCC[C@@H](n2nc(-c3ccc(Oc4ccccc4)cc3)c3c(N)ncnc32)C1 [Compound 27, (R)-2-amino-1-((R)-3-(4-amino-(4-phenoxyphenyl)-1H-pyrazolo[3,4-d]pyrimidin-1-yl)piperidin-1-yl)-4-methylpentan-1-one] | 1300 | 210 | 340 | 1600 | 2200 | 0.023 | 0.018 | 1500 | 0.032 | 5 | 990 | 4.1 | 0.2 | 0.014 | 0.28 | 688 | – |
| Nc1ncnc2c1c(-c1ccc(Oc3ccccc3)cc1)nn2[C@@H]1CCCN(C(=O)[C@H](N)Cc2c[nH]cn2)C1 [Compound 7, (R)-2-amino-1-((R)-3-(4-amino-(4-phenoxyphenyl)-1H-pyrazolo[3,4-d]pyrimidin-1-yl)piperidin-1-yl)-3-(1H-imidazol-4-yl)propan-1-one] | 440 | 51 | 330 | 350 | 370 | 0.023 | 0.3 | 530 | 0.01 | 9 | 1000 | 0.54 | 0.11 | 0.0012 | 0.25 | 27 | – |
| CS(=O)(=O)N1CCC[C@@H](n2nc(-c3ccc(Oc4ccccc4)cc3)c3c(N)ncnc32)C1 [Compound 30, (R)-1-(1-(methylsulfonyl)piperidin-3-yl)-3-(4-phenoxyphenyl)-1H-pyrazolo[3,4-d]pyrimidin-4-amine] | > 10000 | 3500 | 140 | 4350 | – | 0.26 | 0.65 | 9270 | 0.17 | 48 | – | > 10 | 2.5 | 0.13 | 5.3 | 1830 | IC50 [15]: > 10000 nM |
| NCC(=O)N1CCC[C@@H](n2nc(-c3ccc(Oc4ccccc4)cc3)c3c(N)ncnc32)C1 [Compound 43, (R)-2-amino-1-(3-(4-amino-(4-phenoxyphenyl)-1H-pyrazolo[3,4-d]pyrimidin-1-yl)piperidin-1-yl)ethanone] | 3800 | 120 | 22 | – | – | 0.028 | – | 2770 | 0.022 | 7 | – | 7.21 | 0.41 | 0.02 | 1.1 | 28 | IC50 [15]: 5980 nM |
